Legend:
Assay in all cases: Antifungal Test (agar dilution M.I.C.)
Assay type in all cases: cell-based
Conditions in all cases: Table 2; 37° C., 3 days (72 hours)
[1] = test system: Candida albicans AHU 3656
Experimental: (§1) Respective agar plates were prepared by dissolving compounds under test in aseptic water to make a two fold dilution series, taking each 1 milliliter of said diluted solutions and 9 ml of Sabouraud medium into a petri dish, and sufficiently admixing the same.
(§2) On the other hand, an inoculum was prepared by cultivating an examined fungus (microorganism) on the Sabouraud slant medium and suspending two loopful of the incubated fungus in 10 ml of sterilized physiological saline water.
(§3) One loopful of the inoculum was streaked on the above-mentioned agar plate. After the agar plate was incubated at a defined temperature for a predetermined period of time to determine the minimal inhibitory concentration (M.I.C.).
(§4) Incubation temperature:
(§5) Incubation time: 3 days (72 hours) and
(§6) Incubation time: 3 days (72 hours)
(§7) activity incubation conditions:
(§8) Incubation time 3 days (72 hours)
(§9) Incubation time 7 days (168 hours)
(§10) Incubation time 2 days (48 hours)

[2] = test system: Candida albicans NAKAGAWA IFM 4017
Experimental: as §1, §2, §3, §4, §5, §6, §7, §8, §9, §10

[3] = test system: Candida albicans Yu-1200 IFM 4020
Experimental: as §1, §2, §3, §4, §5, §6, §7, §8, §9, §10

Measured: M.I.C.

C[C@@H]1[C@H](O)[C@@H](C)/C=C/C=C/CC/C=C/C=C/C=C/C=C/C(O[C@H]2O[C@H](C)[C@@H](O)[C@H](N)[C@@H]2O)CC2O[C@](O)(CC(O)C(O)CCC(O)CC(O)CC(O)CC(=O)O[C@H]1C)CC(O)C2C(=O)O (stereo partly drawn) [Nystatin, reference compound]
6.25 µg/mL: all assays above
